ChEMBL document CHEMBL5154929, “Optimization of the Natural Product Calothrixin A to Discover Novel Dual Topoisomerase I and II Inhibitors with Improved Anticancer Activity” (J Med Chem, 2022)
pIC50: −log10 of the molar value.

How the values were obtained:
SH-SY5Y = experiment: Cytotoxicity against human SH-SY5Y cells expressing low level of topoisomerase I/II measured after 72 hrs by MTT assay; assay type: functional, cell-based
MDA-MB-231 = experiment: Cytotoxicity against human MDA-MB-231 cells expressing high level of topoisomerase I/II measured after 72 hrs by MTT assay; assay type: functional, cell-based; conditions: MDA-MB-231, 72 h
HCT-116 = experiment: Cytotoxicity against human HCT-116 cells expressing high level of topoisomerase I/II measured after 72 hrs by MTT assay; assay type: functional, cell-based; conditions: HCT-116, 72 h
MCF7 = experiment: Cytotoxicity against human MCF7 cells expressing high level of topoisomerase I/II measured after 72 hrs by MTT assay; assay type: functional, cell-based; conditions: MCF7, 72 h
A-375 = experiment: Cytotoxicity against human A-375 cells expressing high level of topoisomerase I/II measured after 72 hrs by MTT assay; assay type: functional, cell-based; conditions: A-375, 72 h
A549 = experiment: Cytotoxicity against human A549 cells expressing high level of topoisomerase I/II measured after 72 hrs by MTT assay; assay type: functional, cell-based; conditions: A549, 72 h
[1] = Cytotoxicity against human L02 cells measured after 72 hrs by MTT assay; assay type: toxicity, cell-based
[2] = Cytotoxicity against human HEK293T cells measured after 72 hrs by MTT assay; assay type: toxicity, cell-based, HEK-293T

Row | SMILES | pIC50 (SH-SY5Y) | pIC50 (MDA-MB-231) | pIC50 (HCT-116) | pIC50 (MCF7) | pIC50 (A-375) | pIC50 (A549) | IC50 at 72 h [1] | IC50 at 72 h [2]
1 | CN1CCN(CCCn2c3c(c4ccccc42)C(=O)c2c[n+]([O-])c4ccccc4c2C3=O)CC1 | 6.25 | 6.41 | 6.25 | 6.66 | 6.33 | 6.85 | 230 nM | 170 nM
2 | O=C1c2c[n+]([O-])c3ccccc3c2C(=O)c2c1c1ccccc1n2CCN1CCCCC1 | 5.73 | 5.98 | 6.11 | 6.21 | 6.74 | 5.97 | 1050 nM | –
3 | CC1(C)OCC(Cn2cc(Cn3c4c(c5ccccc53)C(=O)c3c[n+]([O-])c5ccccc5c3C4=O)nn2)O1 (centres undefined) | 6.64 | 6.64 | 7.15 | 6.54 | 6.48 | 7.10 | 120 nM | 5510 nM
4 | O=C1c2c[n+]([O-])c3ccccc3c2C(=O)c2c1c1ccccc1n2CCCCCN1CCOCC1 | 6.52 | 6.48 | 6.52 | 6.59 | 6.64 | 6.89 | 330 nM | 150 nM
5 | CC(=O)OC[C@H]1O[C@@H](n2cc(Cn3c4c(c5ccccc53)C(=O)c3c[n+]([O-])c5ccccc5c3C4=O)nn2)C[C@@H]1OC(C)=O | < 6.30 | 6.26 | 6.92 | 6.26 | 6.85 | 5.74 | 350 nM | 2540 nM
6 | CC(=O)OC[C@H]1O[C@@H](n2cc(Cn3c4c(c5ccccc53)C(=O)c3c[n+]([O-])c5ccccc5c3C4=O)nn2)[C@H](OC(C)=O)[C@@H](OC(C)=O)[C@@H]1OC(C)=O | 6.19 | 6.40 | 6.12 | 6.48 | 6.25 | 6.54 | 270 nM | 2430 nM
7 | O=C1c2c[n+]([O-])c3ccccc3c2C(=O)c2c1c1ccccc1n2Cc1cn([C@H]2O[C@H](CO)[C@@H](O)[C@H]2O)nn1 | 5.87 | 5.77 | 6.15 | 5.83 | 6.47 | 5.57 | 950 nM | 1370 nM
8 | O=C1c2c[n+]([O-])c3ccccc3c2C(=O)c2c1c1ccccc1n2CCCCN1CCCCC1 | 6.64 | 6.21 | 6.70 | 6.82 | 6.72 | 6.82 | 610 nM | –
9 | O=C1c2c[n+]([O-])c3ccccc3c2C(=O)c2c1c1ccccc1n2CCN1CCCC1 | 6.28 | 6.20 | 6.57 | 6.49 | 6.37 | 6.39 | 930 nM | –
10 | O=C1c2c[n+]([O-])c3ccccc3c2C(=O)c2c1c1ccccc1n2Cc1cn([C@@H]2O[C@H](CO)[C@@H](O)[C@H](O)[C@H]2O)nn1 | 6.06 | 6.19 | 6.89 | 6.23 | 6.64 | 6.25 | 420 nM | 940 nM
11 | O=C1c2c[n+]([O-])c3ccccc3c2C(=O)c2c1c1ccccc1n2CCCCN1CCN(CCO)CC1 | 6.35 | 6.13 | 6.48 | 6.42 | 6.33 | 6.70 | 880 nM | –
12 | CN(C)CCn1c2c(c3ccccc31)C(=O)c1c[n+]([O-])c3ccccc3c1C2=O | 6.77 | 6.80 | 6.96 | 6.70 | 6.85 | 6.70 | 750 nM | –
13 | CC(=O)OC[C@H]1O[C@H](n2cc(Cn3c4c(c5ccccc53)C(=O)c3c[n+]([O-])c5ccccc5c3C4=O)nn2)C[C@@H]1OC(C)=O | < 6.00 | 5.92 | 6.42 | 5.89 | 6.26 | 5.94 | 2780 nM | 120 nM
14 | CC(=O)OC[C@H]1O[C@H](n2cc(Cn3c4c(c5ccccc53)C(=O)c3c[n+]([O-])c5ccccc5c3C4=O)nn2)[C@H](OC(C)=O)[C@@H]1OC(C)=O | 6.29 | 6.60 | 6.82 | 6.17 | 6.16 | 6.37 | 90 nM | 210 nM
15 | CCOC(=O)[C@@H]1OC(C)(C)O[C@H]1Cn1cc(Cn2c3c(c4ccccc42)C(=O)c2c[n+]([O-])c4ccccc4c2C3=O)nn1 | < 6.00 | 5.98 | 6.11 | < 6.00 | 6.24 | < 6.00 | 840 nM | 130 nM
16 | CN(C)CCCn1c2c(c3ccccc31)C(=O)c1c[n+]([O-])c3ccccc3c1C2=O | 6.48 | 6.31 | 6.46 | 6.62 | 6.39 | 6.51 | 490 nM | 130 nM

Row | SMILES | pIC50 (SH-SY5Y) | pIC50 (MDA-MB-231) | pIC50 (HCT-116) | pIC50 (MCF7) | pIC50 (A-375) | pIC50 (A549) | IC50 at 72 h [1] | IC50 at 72 h [2]
17 | CC[C@@]1(O)C(=O)OCc2c1cc1n(c2=O)Cc2cc3ccccc3nc2-1 [CAMPTOTHECIN] | 6.21 | 6.31 | 6.22 | 6.46 | 6.18 | 6.43 | 140 nM | 690 nM
18 | O=C1c2c[n+]([O-])c3ccccc3c2C(=O)c2c1c1ccccc1n2Cc1cn(CC(O)CO)nn1 (centres undefined) | < 6.00 | 5.89 | 6.60 | 5.95 | 6.36 | 6.06 | 1070 nM | 760 nM
19 | O=C1c2c[n+]([O-])c3ccccc3c2C(=O)c2c1c1ccccc1n2CCCCn1ccnc1 | 6.89 | 6.68 | 6.62 | 6.89 | 6.46 | 6.77 | 150 nM | 280 nM
20 | O=C1c2c[n+]([O-])c3ccccc3c2C(=O)c2c1c1ccccc1n2Cc1cn(C[C@@H](O)CO)nn1 | < 6.30 | 6.17 | 6.72 | 6.22 | 6.85 | 6.41 | 490 nM | 2030 nM
21 | CN1CCN(CCCCCCn2c3c(c4ccccc42)C(=O)c2c[n+]([O-])c4ccccc4c2C3=O)CC1 | 6.04 | 5.62 | 5.54 | 6.40 | 6.20 | 6.48 | 3800 nM | 5800 nM
22 | CCCN1CCN(CCCCn2c3c(c4ccccc42)C(=O)c2c[n+]([O-])c4ccccc4c2C3=O)CC1 | 5.40 | 5.53 | 6.10 | 5.89 | 6.06 | 6.49 | 6830 nM | –
23 | CC(=O)OC[C@@H]1OC(C)(C)O[C@H]1Cn1cc(Cn2c3c(c4ccccc42)C(=O)c2c[n+]([O-])c4ccccc4c2C3=O)nn1 | < 6.00 | < 6.00 | 6.24 | < 6.00 | 6.37 | < 6.00 | 1060 nM | 10200 nM
24 | CCCCN1CCN(CCCCn2c3c(c4ccccc42)C(=O)c2c[n+]([O-])c4ccccc4c2C3=O)CC1 | 5.21 | 6.05 | 5.72 | 5.16 | 5.67 | 6.26 | 5690 nM | –
25 | O=C1c2c[n+]([O-])c3ccccc3c2C(=O)c2c1c1ccccc1n2CCN1CCOCC1 | 5.69 | 5.69 | 5.89 | 5.76 | 6.09 | 6.25 | 1730 nM | –
26 | O=C1c2c[n+]([O-])c3ccccc3c2C(=O)c2c1c1ccccc1n2CCCCN1CCOCC1 | 6.77 | 6.62 | 7.05 | 6.89 | 6.77 | 7.05 | 510 nM | –
27 | CC1(C)OC[C@H](Cn2cc(Cn3c4c(c5ccccc53)C(=O)c3c[n+]([O-])c5ccccc5c3C4=O)nn2)O1 | 6.09 | 6.28 | 6.89 | 6.28 | 6.74 | 6.47 | 470 nM | 100 nM
28 | O=C1c2c[n+]([O-])c3ccccc3c2C(=O)c2c1c1ccccc1n2CCCN1CCC(O)CC1 | 6.89 | 6.55 | 6.72 | 6.72 | 6.62 | 6.46 | 120 nM | 170 nM
29 | O=C1c2c[n+]([O-])c3ccccc3c2C(=O)c2c1c1ccccc1n2Cc1cn(C[C@H](O)CO)nn1 | < 6.00 | 5.88 | 6.40 | < 6.00 | 6.46 | 5.99 | 1130 nM | 8880 nM
30 | CN(C)CCCCCn1c2c(c3ccccc31)C(=O)c1c[n+]([O-])c3ccccc3c1C2=O | 6.43 | 6.62 | 6.33 | 6.70 | 6.25 | 6.68 | 240 nM | 70 nM
31 | CC1(C)OC[C@@H](Cn2cc(Cn3c4c(c5ccccc53)C(=O)c3c[n+]([O-])c5ccccc5c3C4=O)nn2)O1 | < 6.00 | < 6.00 | 6.47 | < 6.00 | 6.35 | 5.33 | 2900 nM | 6020 nM
